Measurements reported in ChEMBL document CHEMBL4118115, “Synthetic analogues of durantoside I from Citharexylum spinosum L. and their cytotoxic activity” (Bioorg Med Chem Lett, 2018).

What was measured:
KB = experiment: Cytotoxicity against human KB cells assessed as reduction in cell viability by Sulforhodamine B assay; format: functional, cell-based
P388 = experiment: Cytotoxicity against mouse P388 cells assessed as reduction in cell viability by Sulforhodamine B assay; format: functional, cell-based
HEK293 = experiment: Cytotoxicity against HEK293 cells assessed as reduction in cell viability by Sulforhodamine B assay; format: cell-based; conditions: Homo sapiens
MCF7 = experiment: Cytotoxicity against human MCF7 cells assessed as reduction in cell viability by Sulforhodamine B assay; format: functional, cell-based
A549 = experiment: Cytotoxicity against human A549 cells assessed as reduction in cell viability by Sulforhodamine B assay; format: functional, cell-based
HT-29 = experiment: Cytotoxicity against human HT-29 cells assessed as reduction in cell viability by Sulforhodamine B assay; format: functional, cell-based
[1] = Cytotoxicity against rat ASK cells assessed as reduction in cell viability by Sulforhodamine B assay; format: functional, cell-based

| SMILES | IC50 (KB) [µM] | IC50 (P388) [µM] | IC50 (HEK293) [µM] | IC50 (MCF7) [µM] | IC50 (A549) [µM] | IC50 (HT-29) [µM] | IC50 [1] [µM] |
| --- | --- | --- | --- | --- | --- | --- | --- |
| Cc1c2ccncc2c(C)c2c1[nH]c1ccccc12 [ELLIPTECINE] | 2.15 | 1.84 | 1.9 | 1.99 | 1.96 | 2 | 2.02 |
| COC(=O)C1=CO[C@@H](O[C@H]2O[C@@H](COC(C)=O)[C@H](OC(C)=O)[C@@H](OC(C)=O)[C@@H]2OC(C)=O)[C@@H]2[C@@](C)(OC(C)=O)[C@@H](OC(=O)/C=C/c3ccccc3)C[C@]12O | > 50 | > 50 | 45 | > 50 | > 50 | > 50 | > 50 |
| COC(=O)C1=CO[C@@H](O[C@H]2O[C@@H](COC(C)=O)[C@H](OC(C)=O)[C@@H](OC(C)=O)[C@@H]2OC(C)=O)[C@@H]2[C@@](C)(O)[C@@H](OC(=O)/C=C/c3ccccc3)C[C@]12O | > 50 | > 50 | > 50 | > 50 | > 50 | > 50 | > 50 |
| COC(=O)C1=CO[C@@H](O[C@H]2O[C@@H](CO[Si](c3ccccc3)(c3ccccc3)C(C)(C)C)[C@H](OC(C)=O)[C@@H](OC(C)=O)[C@@H]2OC(C)=O)[C@@H]2[C@@](C)(O)[C@@H](OC(C)=O)C[C@]12O | 14.7 | 3.67 | 7.4 | 9.01 | 8.2 | 35 | 9.19 |
| COC(=O)C1=CO[C@@H](O[C@H]2O[C@@H](CO[Si](C)(C)C(C)(C)C)[C@H](OC(C)=O)[C@@H](OC(C)=O)[C@@H]2OC(C)=O)[C@@H]2[C@@](C)(O)[C@@H](OC(=O)/C=C/c3ccccc3)C[C@]12O | > 50 | 3.11 | 31.8 | 43.3 | > 50 | > 50 | > 50 |
| COC(=O)C1=CO[C@@H](O[C@H]2O[C@@H](CO[Si](c3ccccc3)(c3ccccc3)C(C)(C)C)[C@H](OC(C)=O)[C@@H](OC(C)=O)[C@@H]2OC(C)=O)[C@@H]2[C@@](C)(O)[C@@H](OC(=O)/C=C/c3ccccc3)C[C@]12O | > 50 | 6.11 | > 50 | > 50 | > 50 | 37.2 | > 50 |
| COC(=O)C1=CO[C@@H](O[C@H]2O[C@@H](CO)[C@H](O)[C@@H](O)[C@@H]2O)[C@@H]2[C@@](C)(O)[C@@H](OC(=O)/C=C/c3ccccc3)C[C@]12O | > 50 | > 50 | > 50 | > 50 | > 50 | > 50 | > 50 |
